In patent publication US20090036448A1, “PYRIMIDINE DERIVATIVES AND METHODS OF TREATMENT RELATED TO THE USE THEREOF” (TAISHO PHARMECUTICAL CO., LTD., priority 2004, published 2009):
Where a name gives a salt, the structure may show the parent alone.

Target: MCH receptor (Homo sapiens, UniProt Q99705)
Assay: FLIPR/FDSS6000 functional assay: intracellular Ca2+ changes evoked by MCH
Assay type: cell-based
Details: class by percent of control at 10^−7 M or by IC50; antagonist activity, 50 nM of MCH; read-out: class
Method in brief: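 Cells expressing a constitutively active, non-endogenous MCH receptor were loaded with 4 μM Fluo-4-AM for 1 hr at 37 °C. They were then preincubated 30 min with compound before MCH addition, using 50 nM MCH for antagonist testing. [Ca2+]i transients were monitored at Ex 488/Em 530 nm for 290 s by FLIPR or FDSS.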

| SMILES | IC50 [nM] |
| --- | --- |
| Cc1cc(N[C@H]2CC[C@@H](NC(=O)c3ccc(F)c(Cl)c3)CC2)nc(N(C)C)n1 [Example 45, 3-Chloro-N-(cis-4-{([2-(dimethylamino)-6-methylpyrimidin-4-yl]amino}cyclohexyl)-4-fluorobenzamide hydrochloride] | 50 to 200 |
| Cc1cnc(N(C)C)nc1N[C@H]1CC[C@@H](NC(=O)c2ccc(F)c(Cl)c2)CC1 [Example 46, 3-Chloro-N-(cis-4-{[2-(dimethylamino)-5-methylpyrimidin-4-yl]amino}cyclohexyl)-4-fluorobenzamide hydrochloride] | > 200 |
| CN(C)c1cc(N[C@H]2CC[C@@H](NC(=O)c3ccc(F)c(Cl)c3)CC2)nc(C(F)(F)F)n1 [Example 47, 3-Chloro-N-(cis-4-{[6-(dimethylamino)-2-(trifluoromethyl)pyrimidin-4-yl]amino}cyclohexyl)-4-fluorobenzamide hydrochloride] | > 200 |
| Cc1nc(N)cc(N[C@H]2CC[C@@H](NC(=O)c3cc(F)c(F)c(F)c3)CC2)n1 [Example 168, N-{cis-4-[(6-Amino-2-methylpyrimidin-4-yl)amino]cyclohexyl}-3,4,5-trifluorobenzamide hydrochloride] | > 200 |
| CNc1cc(N[C@H]2CC[C@@H](NC(=O)c3cc(F)c(F)c(F)c3)CC2)nc(C)n1 [Example 169, 3,4,5-Trifluoro-N-(cis-4-{[2-methyl-6-(methylamino)pyrimidin-4-yl]amino}cyclohexyl)-benzamide hydrochloride] | 50 to 200 |
| Cc1cc(N[C@H]2CC[C@@H](NC(=O)c3ccc(F)c(Cl)c3)CC2)nc(C)n1 [Example 171, 3-Chloro-N-{cis-4-[(2,6-dimethylpyrimidin-4-yl)amino]cyclohexyl}-4-fluorobenzamide hydrochloride] | > 200 |
| Cc1nc(Cl)cc(N[C@H]2CC[C@@H](NC(=O)c3cc(F)c(F)c(F)c3)CC2)n1 [Example 172, N-{cis-4-[(6-Chloro-2-methylpyrimidin-4-yl)amino]cyclohexyl}-3,4,5-trifluorobenzamide] | > 200 |
| Cc1nc(NC2CC2)cc(N[C@H]2CC[C@@H](NC(=O)c3cc(F)c(F)c(F)c3)CC2)n1 [Example 173, N-(cis-4-{[6-(Cyclopropylamino)-2-methylpyrimidin-4-yl]amino}cyclohexyl)-3,4,5-trifluorobenzamide hydrochloride] | > 200 |
| Cc1nc(N[C@H]2CC[C@@H](NC(=O)c3cc(F)c(F)c(F)c3)CC2)cc(N(C)c2ccccc2)n1 [Example 174, 3,4,5-Trifluoro-N-[cis-4-({2-methyl-6-[methyl(phenyl)amino]pyrimidin-4-yl}amino)-cyclohexyl]benzamide hydrochloride] | > 200 |
| Cc1nc(N[C@H]2CC[C@@H](NC(=O)c3cc(F)c(F)c(F)c3)CC2)cc(N(C)Cc2ccccc2)n1 [Example 175, N-[cis-4-({6-[Benzyl(methyl)amino]-2-methylpyrimidin-4-yl}amino)cyclohexyl]-3,4,5-trifluorobenzamide hydrochloride] | > 200 |
| CCN(C)c1cc(N[C@H]2CC[C@@H](NC(=O)c3cc(F)c(F)c(F)c3)CC2)nc(C)n1 [Example 176, N-[cis-4-({6-[Ethyl(methyl)amino]-2-methylpyrimidin-4-yl}amino)cyclohexyl]-3,4,5-trifluorobenzamide hydrochloride] | > 200 |
| CCc1nc(N[C@H]2CC[C@@H](NC(=O)c3cc(F)c(F)c(F)c3)CC2)cc(N(C)C)n1 [Example 177, N-(cis-4-{[6-(Dimethylamino)-2-ethylpyrimidin-4-yl]amino}cyclohexyl)-3,4,5-trifluorobenzamide hydrochloride] | < 50 |
| CN(C)c1cc(N[C@H]2CC[C@@H](NC(=O)c3ccc(F)c(Cl)c3)CC2)nc(-c2ccccc2)n1 [Example 178, 3-Chloro-N-(cis-4-{[6-(dimethylamino)-2-phenylpyrimidin-4-yl]amino}cyclohexyl)-4-fluorobenzamide hydrochloride] | > 200 |
| CN(C)c1cc(N[C@H]2CC[C@@H](NC(=O)c3ccc(F)c(Cl)c3)CC2)nc(Cc2ccccc2)n1 [Example 179, N-(cis-4-{[2-Benzyl-6-(dimethylamino)pyrimidin-4-yl]amino}cyclohexyl)-3-chloro-4-fluorobenzamide hydrochloride] | < 50 |
| Cc1nc(N[C@H]2CC[C@@H](NC(=O)c3ccc(F)c(Cl)c3)CC2)c(C)c(N(C)C)n1 [Example 180, 3-Chloro-N-(cis-4-{[6-(dimethylamino)-2,5-dimethylpyrimidin-4-yl]amino}cyclohexyl)-4-fluorobenzamide hydrochloride] | > 200 |
| Cc1nc(N[C@H]2CC[C@@H](NC(=O)c3ccc(F)c(Cl)c3)CC2)c(F)c(N(C)C)n1 [Example 181, 3-Chloro-N-(cis-4-{[6-(dimethylamino)-5-fluoro-2-methylpyrimidin-4-yl]amino}cyclohexyl)-4-fluorobenzamide hydrochloride] | > 200 |
| Cc1nc(N[C@H]2CC[C@@H](NS(=O)(=O)c3ccc(F)c(Cl)c3)CC2)cc(N(C)C)n1 [Example 182, 3-Chloro-N-(cis-4-{[6-(dimethylamino)-2-methylpyrimidin-4-yl]amino}cyclohexyl)-4-fluorobenzenesulfonamide hydrochloride] | > 200 |
| Cc1nc(N[C@H]2CC[C@@H](NC(=S)Nc3ccc(F)c(Cl)c3)CC2)cc(N(C)C)n1 [Example 183, N-(3-Chloro-4-fluorophenyl)-N′-(cis-4-{[6-(dimethylamino)-2-methylpyrimidin-4-yl]amino}cyclohexyl)thiourea hydrochloride] | > 200 |
| Cc1nc(N[C@H]2CC[C@@H](NC(=O)Oc3ccc(Br)cc3)CC2)cc(N(C)C)n1 [Example 184, 4-Bromophenyl (cis-4-{[6-(dimethylamino)-2-methylpyrimidin-4-yl]amino}cyclohexyl)carbamate] | > 200 |
| COc1cc(N[C@H]2CC[C@@H](NC(=O)c3ccc(F)c(Cl)c3)CC2)nc(OC)n1 [Example 185, 3-Chloro-N-{cis-4-[(2,6-dimethoxypyrimidin-4-yl)amino]cyclohexyl}-4-fluorobenzamide hydrochloride] | > 200 |
| O=C(N[C@H]1CC[C@@H](Nc2ncnc3[nH]ccc23)CC1)c1ccc(F)c(Cl)c1 [Example 186, 3-Chloro-4-fluoro-N-[cis-4-(7H-pyrrolo[2,3-d]pyrimidin-4-ylamino)cyclohexyl]benzamide hydrochloride] | > 200 |
| Cn1ccc2c(N[C@H]3CC[C@@H](NC(=O)c4ccc(F)c(Cl)c4)CC3)ncnc21 [Example 187, 3-Chloro-4-fluoro-N-{cis-4-[(7-methyl-7H-pyrrolo[2,3-d]pyrimidin-4-yl)amino]cyclohexyl}-benzamide hydrochloride] | 50 to 200 |
| Cn1ccc2c(N[C@H]3CC[C@@H](NC(=O)c4cc(F)c(F)c(F)c4)CC3)ncnc21 [Example 188, 3,4,5-Trifluoro-N-{cis-4-[(7-methyl-7H-pyrrolo[2,3-d]pyrimidin-4-yl)amino]cyclohexyl}benzamide hydrochloride] | 50 to 200 |
| CCn1ccc2c(N[C@H]3CC[C@@H](NC(=O)c4ccc(F)c(Cl)c4)CC3)ncnc21 [Example 189, 3-Chloro-N-{cis-4-[(7-ethyl-7H-pyrrolo[2,3-d]pyrimidin-4-yl)amino]cyclohexyl}-4-fluorobenzamide hydrochloride] | > 200 |
